From patent publication US9504675B2, “Alpha-ketoheterocycles and methods of making and using” (The Scripps Research Institute, priority 2011, dated 2016)
pKi: −log10 of the molar value.

Biological target: T1, recombinant rat FAAH (rFAAH) (Rattus norvegicus, UniProt P97612)
T1 construct: The truncated rat FAAH (rFAAH) was expressed in E. coli and purified; made in house; host or cells: Escherichia coli
T1 sequence (P97612 30-579 limits assumed): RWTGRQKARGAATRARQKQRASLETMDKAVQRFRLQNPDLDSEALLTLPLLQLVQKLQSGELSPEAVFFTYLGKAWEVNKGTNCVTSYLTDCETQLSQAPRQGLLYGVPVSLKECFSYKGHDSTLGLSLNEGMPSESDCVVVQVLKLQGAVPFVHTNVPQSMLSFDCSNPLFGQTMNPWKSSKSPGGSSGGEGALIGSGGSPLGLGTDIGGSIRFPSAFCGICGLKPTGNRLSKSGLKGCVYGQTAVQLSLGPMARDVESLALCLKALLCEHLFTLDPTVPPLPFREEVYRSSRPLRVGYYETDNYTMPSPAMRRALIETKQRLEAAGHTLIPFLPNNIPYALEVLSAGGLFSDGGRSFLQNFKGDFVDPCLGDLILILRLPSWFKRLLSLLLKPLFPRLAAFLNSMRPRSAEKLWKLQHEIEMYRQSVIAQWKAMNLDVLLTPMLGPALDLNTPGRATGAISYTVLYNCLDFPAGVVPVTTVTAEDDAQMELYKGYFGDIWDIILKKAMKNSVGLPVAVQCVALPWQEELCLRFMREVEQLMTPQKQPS
Experiment: Enzyme assay: inhibition of purified recombinant rat FAAH, 14C-oleamide hydrolysis, Ki by Dixon plot
Format: biochemical
Settings: Ki
Description: Enzyme assays were performed at 20-23° C. with purified recombinant rat FAAH expressed in Escherichia coli or with solubilized COS-7 membrane extracts from cells transiently transfected with human FAAH cDNA (where specifically indicated) in a buffer of 125 mM Tris/1 mM EDTA/0.2% glycerol/0.02% Triton X-100/0.4 mM Hepes, pH 9.0.
^14C-labeled oleamide was prepared from ^14C-labeled oleic acid. The truncated rat FAAH (rFAAH) was expressed in E. coli and purified. The purified recombinant rFAAH was used in the inhibition assays unless otherwise indicated. The full-length human FAAH (hFAAH) was expressed in COS-7 cells as described, and the lysate of hFAAH-transfected COS-7 cells was used in the inhibition assays where explicitly indicated.
The inhibition assays were performed as follows. […] The enzyme reaction was terminated by transferring 20 μL of the reaction mixture to 500 μL of 0.1 N HCl at three different time points. The ^14C-labeled oleamide (substrate) and oleic acid (product) were extracted with EtOAc and analyzed by TLC as detailed. The Ki of the inhibitor was calculated using a Dixon plot as described (standard deviations are provided in the Supporting Information tables).

[1] = Table 2, (R)-enantiomer, 1,2,3,4-tetrahydronaphthalene C2 acyl side chain
[2] = Table 3, (R)-enantiomer, indane C2 acyl side chain
[3] = Table 4, (R)-enantiomer, additional FAAH inhibitors
[4] = Table 2, (S)-enantiomer, 1,2,3,4-tetrahydronaphthalene C2 acyl side chain

Compound: O=C(c1ncco1)C1CCc2cc(OCc3ccccc3)ccc2C1 (single isomer, unassigned) [(R)-15, (6-(Benzyloxy)-1,2,3,4-tetrahydronaphthalen-2-yl)(oxazol-2-yl)methanone]
- pKi [1]: 7.06

Compound: COC(=O)c1cnc(C(=O)C2CCc3cc(OCc4ccccc4)ccc3C2)o1 (single isomer, unassigned) [(R)-16, Methyl 2-(6-(Benzyloxy)-1,2,3,4-tetrahydronaphthalene-2-carbonyl)oxazole-5-carboxylate]
- pKi [1]: 7.28

Compound: N#Cc1cnc(C(=O)C2CCc3cc(OCc4ccccc4)ccc3C2)o1 (single isomer, unassigned) [(R)-17, 2-(6-(Benzyloxy)-1,2,3,4-tetrahydronaphthalene-2-carbonyl)oxazole-5-carbonitrile]
- pKi [1]: 6.92

Compound: O=C(c1ncc(-c2ccccn2)o1)C1CCc2cc(OCc3ccccc3)ccc2C1 (single isomer, unassigned) [(R)-18, (6-(Benzyloxy)-1,2,3,4-tetrahydronaphthalen-2-yl)(5-(pyridin-2-yl)oxazol-2-yl)methanone]
- pKi [1]: 6.52

Compound: COC(=O)c1cccc(-c2cnc(C(=O)C3CCc4cc(OCc5ccccc5)ccc4C3)o2)n1 (single isomer, unassigned) [(R)-19, Methyl 6-(2-(6-(Benzyloxy)-1,2,3,4-tetrahydronaphthalene-2-carbonyl)oxazol-5-yl)picolinate]
- pKi [1]: 5.35

Compound: O=C(O)c1cccc(-c2cnc(C(=O)C3CCc4cc(OCc5ccccc5)ccc4C3)o2)n1 (single isomer, unassigned) [(R)-20, 6-(2-(6-(Benzyloxy)-1,2,3,4-tetrahydronaphthalene-2-carbonyl)oxazol-5-yl)picolinic acid]
- pKi [1]: 6.13

Compound: O=C(c1ncco1)C1Cc2ccc(-c3ccccc3)cc2C1 (single isomer, unassigned) [(R)-22, Oxazol-2-yl(5-phenylindan-2-yl)methanone]
- pKi [2]: 6.85

Compound: O=C(c1ncc(-c2ccccn2)o1)C1Cc2ccc(-c3ccccc3)cc2C1 (single isomer, unassigned) [(R)-23, (5-Phenylindan-2-yl)-(5-(pyridin-2-yl)oxazol-2-yl)methanone]
- pKi [2]: 6.22

Compound: O=C(c1ncco1)C1Cc2ccc(Oc3ccccc3)cc2C1 (single isomer, unassigned) [(R)-26, Oxazol-2-yl(5-phenoxyindan-2-yl)methanone]
- pKi [2]: 6.70

Compound: O=C(c1ncc(-c2ccccn2)o1)C1Cc2ccc(Oc3ccccc3)cc2C1 (single isomer, unassigned) [(R)-27, (5-Phenoxyindan-2-yl)(5-(pyridin-2-yl)oxazol-2-yl)methanone]
- pKi [2]: 7.38

Compound: COC(=O)c1cccc(-c2cnc(C(=O)C3Cc4ccc(Oc5ccccc5)cc4C3)o2)n1 (single isomer, unassigned) [(R)-28]
- pKi [2]: 6.10

Compound: O=C(O)c1cccc(-c2cnc(C(=O)C3Cc4ccc(Oc5ccccc5)cc4C3)o2)n1 (single isomer, unassigned) [(R)-29, 6-(2-(5-Phenoxyindane-2-carbonyl)oxazol-5-yl)picolinic acid]
- pKi [2]: 6.26

Compound: O=C(c1ncc(-c2ccccn2)o1)C1Cc2ccc(OCc3ccccc3)cc2C1 (single isomer, unassigned) [(R)-31, (5-(Benzyloxy)indan-2-yl)(5-(pyridin-2-yl)oxazol-2-yl)methanone]
- pKi [2]: 6.96

Compound: COC(=O)c1cccc(-c2cnc(C(=O)C3Cc4ccc(OCc5ccccc5)cc4C3)o2)n1 (single isomer, unassigned) [(R)-32, Methyl 6-(2-(5-(Benzyloxy)indane-2-carbonyl)oxazol-5-yl)picolinate]
- pKi [2]: 6.89

Compound: O=C(O)c1cccc(-c2cnc(C(=O)C3Cc4ccc(OCc5ccccc5)cc4C3)o2)n1 (single isomer, unassigned) [(R)-33, 6-(2-(5-(Benzyloxy)indane-2-carbonyl)oxazol-5-yl)picolinic acid]
- pKi [2]: 6.18

Compound: O=C(c1nnco1)C1CCc2cc(Oc3ccccc3)ccc2C1 (single isomer, unassigned) [(R)-34, (1,3,4-Oxadlazol-2-yl)(6-phenoxy-1,2,3,4-tetrahydronaphthalen-2-yl)methanone]
- pKi [3]: 8.85

Compound: COC(=O)c1nnc(C(=O)C2CCc3cc(Oc4ccccc4)ccc3C2)o1 (single isomer, unassigned) [(R)-35, Methyl 5-(6-Phenoxy-1,2,3,4-tetrahydronaphthalene-2-carbonyl)-[1,3,4]oxadiazole-2-carboxylate]
- pKi [3]: 8.80

Compound: O=C(c1nnc(-c2ccccn2)o1)C1CCc2cc(Oc3ccccc3)ccc2C1 (single isomer, unassigned) [(R)-36, (6-Phenoxy-1,2,3,4-tetrahydronaphthalen-2-yl)(5-(pyridin-2-yl)-1,3,4-oxadiazol-2-yl)methanone]
- pKi [3]: 8.20

Compound: O=C(c1ncco1)C1CCc2ccccc2C1 (single isomer, unassigned) [(R)-37, Oxazol-2-yl(1,2,3,4-tetrahydronaphthalen-2-yl)methanone]
- pKi [3]: 4.92

Compound: O=C(c1ncc(-c2ccccn2)o1)C1CCc2ccccc2C1 (single isomer, unassigned) [(R)-38, (5-(Pyridin-2-yl)oxazol-2-yl)(1,2,3,4-tetrahydronaphthalen-2-yl)methanone]
- pKi [3]: 5.49

Compound: O=C(c1ncco1)C1CCc2cc(-c3ccccc3)ccc2C1 (single isomer, unassigned) [(S)-3, Oxazol-2-yl(6-phenyl-1,2,3,4-tetrahydronaphthalen-2-yl)methanone]
- pKi [4]: 7.24

Compound: COC(=O)c1cnc(C(=O)C2CCc3cc(-c4ccccc4)ccc3C2)o1 (single isomer, unassigned) [(S)-4, Methyl 2-(6-Phenyl-1,2,3,4-tetrahydronaphthalene-2-carbonyl)oxazole-5-carboxylate]
- pKi [4]: 7.26

Compound: N#Cc1cnc(C(=O)C2CCc3cc(-c4ccccc4)ccc3C2)o1 (single isomer, unassigned) [(S)-5, 2-(6-Phenyl-1,2,3,4-tetrahydronaphthalene-2-carbonyl)oxazole-5-carbonitrile]
- pKi [4]: 8.47

Compound: O=C(c1ncc(-c2ccccn2)o1)C1CCc2cc(-c3ccccc3)ccc2C1 (single isomer, unassigned) [(S)-6, (6-Phenyl-1,2,4-tetrahydronaphthalen-2-yl)(5-(pyridin-2-yl)oxazol-2-yl)methanone]
- pKi [4]: 8.14

Compound: COC(=O)c1cccc(-c2cnc(C(=O)C3CCc4cc(-c5ccccc5)ccc4C3)o2)n1 (single isomer, unassigned) [(S)-7, Methyl 6-(2-(6-Phenyl-1,2,3,4-tetrahydronaphthalene-2-carbonyl)oxazol-5-yl)picolinate]
- pKi [4]: 7.57

Compound: O=C(O)c1cccc(-c2cnc(C(=O)C3CCc4cc(-c5ccccc5)ccc4C3)o2)n1 (single isomer, unassigned) [(S)-8, 6-(2-(6-Phenyl-1,2,3,4-tetrahydronaphthalene-2-carbonyl)oxazol-5-yl)picolinic acid]
- pKi [4]: 7.41

Compound: O=C(c1ncco1)C1CCc2cc(Oc3ccccc3)ccc2C1 (single isomer, unassigned) [(S)-9, Oxazol-2-yl(6-phenoxy-1,2,3,4-tetrahydronaphthalen-2-yl)methanone]
- pKi [4]: 8.66

Compound: COC(=O)c1cnc(C(=O)C2CCc3cc(Oc4ccccc4)ccc3C2)o1 (single isomer, unassigned) [(S)-10, Methyl 2-(6-Phenoxy-1,2,3,4-tetrahydronaphthalene-2-carbonyl)oxazole-5-carboxylate]
- pKi [4]: 8.27

Compound: N#Cc1cnc(C(=O)C2CCc3cc(Oc4ccccc4)ccc3C2)o1 (single isomer, unassigned) [(S)-11, 2-(6-Phenoxy-1,2,3,4-tetrahydronaphthalene-2-carbonyl)oxazole-5-carbonitrile]
- pKi [4]: 8.89

Compound: O=C(c1ncc(-c2ccccn2)o1)C1CCc2cc(Oc3ccccc3)ccc2C1 (single isomer, unassigned) [(S)-12, (6-Phenoxy-1,2,3,4-tetrahydronaphthalen-2-yl)(5-(pyridin-2-yl)oxazol-2-yl)methanone]
- pKi [4]: 8.36

Compound: COC(=O)c1cccc(-c2cnc(C(=O)C3CCc4cc(Oc5ccccc5)ccc4C3)o2)n1 (single isomer, unassigned) [(S)-13, Methyl 6-(2-(6-Phenoxy-1,2,3,4-tetrahydronaphthalene-2-carbonyl)oxazol-5-yl)picolinate]
- pKi [4]: 8.66

Compound: O=C(O)c1cccc(-c2cnc(C(=O)C3CCc4cc(Oc5ccccc5)ccc4C3)o2)n1 (single isomer, unassigned) [(S)-14, 6-(2-(6-Phenoxy-1,2,3,4-tetrahydronaphthalene-2-carbonyl)oxazol-5-yl)picolinic acid]
- pKi [4]: 7.60
